The target in data set [1] is T1, PP2A (Mus musculus, UniProt P63330).
T1 construct: endogenous in cells; host or cells: 32Dc13, 32D-BCR/ABL, 32D-BCR/ABL-T315I, 32D-p210 Y253H, BaF3-p210 T315I, K562, primary CML-BC CD34+ and NBM CD34+ cells
Put plainly: PP2A IP phosphatase assay on lysates of treated cells. It is filed as cell-based. As to the method:
PP2A phosphatase assays were carried out using the PP2A IP phosphatase assay kit (Upstate). Briefly, protein lysates (50 μg) in 100 μl of 20 mM HEPES (pH 7.0)/100 mM NaCl, 5 μg of PP2Ac antibody (Upstate), and 25 μl of Protein A-agarose were added to 400 μl of 50 mM Tris (pH 7.0)/100 mM CaCl2, and IPs were carried out at 4° C. for 2 hr. IPs were washed and used in the phosphatase reaction according to the manufacturer's protocol. Specificity of the PP2A assay was assessed by titration with okadaic acid and by ascertaining the absence of PP1a in the PP2A immunoprecipitates (Figure S2A). As internal control, the amount of immunoprecipitated PP2A was also monitored by anti-PP2Ac Western blots (Figure S2B).

In data set [2] the test system is BCR/ABL. Put plainly: Western blot of BCR/ABL activity (phosphotyrosine) and expression. In kind it is cell-based. Particulars: for EC50: 18-24 hr, read-out: EC50 of downregulation of BCR/ABL; for BCR/ABL activity and expression: HA-PP2Ac-transduced 32D-BCR/ABL cells, okadaic acid 0.25 nM, 1 hr. (In general: Immunoblotting shows a protein as a band on a membrane.)
Procedure: Cells (10^7) were lysed in 100 μl of RIPA buffer (150 mM NaCl, 1% NP-40, 0.1% SDS, 50 mM Tris [pH 8.0]) supplemented with 1 mM PMSF, 25 μg/ml aprotinin, 10 μg/ml leupeptin, 100 μg/ml pepstatin A, 5 mM benzamidine, 1 mM Na3VO4, 50 mM NaF, 10 mM β-glycerol-phosphate. After incubation on ice (30 min), lysates were clarified (12,000×g, 15 min, 4° C.), denatured, and subjected to SDS-PAGE and Western blot (Iervolino et al., 2002). The antibodies used were goat polyclonal anti-SET(I2PP2A), -pp32(I1PP2A), and -hnRNP A1 and rabbit polyclonal anti-SHP-1 (Santa Cruz Biotechnology); monoclonal anti-Abl (Ab-3), -c-myc (Ab-2), -phosphotyrosine PY20 (Ab-4), and -pBAD^S112 (Ab-1) (EMD); monoclonal anti-hnRNP A1 (9H10) (G. Dreyfuss, University of Pennsylvania, Philadelphia, Pa.); monoclonal anti-GRB2 and -Rb (BD TransLab Inc.); monoclonal anti-HA (Covance); monoclonal anti-PP2Ac, clone 1D6 (Upstate Inc.); monoclonal anti-FLAG, clone M2 (Sigma); monoclonal anti-pERK^T202/Y204 and rabbit polyclonal anti-pAKT^T308, pSTAT5^Y694, -pJak2^Y1007/1008, -Jak2, -BAD, -Akt, and -ERK1/2 (Cell Signaling Technology Inc.); monoclonal anti-STATS (Invitrogen); rabbit monoclonal anti-pPP2A^Y307 (Epitomics); rabbit polyclonal anti-PR65/A (Calbiochem). IPs were carried out in 20 mM HEPES (pH 7.0), 150 mM NaCl, and 0.2% NP-40 supplemented with protease and phosphatase inhibitors. Lysates were precleared and immunoprecipitated with Ab-coated beads for 3 hr at 4° C. After washings, IPs were subjected to SDS-PAGE and Western blot.

Data set [3] deals with NBM CD34+ cells. Put plainly: Methylcellulose colony formation of normal CD34+ marrow cells. It is filed as cell-based, human. As to conditions: NBM CD34+ cells (normal CD34+ myeloid progenitors). As to the method: The Ph^1 K562, the BCR/ABL-expressing 32Dc13 and BaF3 cells, and their derivative lines were maintained in culture in IMDM/10% FBS/2 mM L-glutamine. The SET shRNA-, HA-PP2Ac-, and HA-PP2Ac/FLAG-SET-expressing cells were generated by retroviral infection followed by either antibiotic-mediated selection or FACS-mediated sorting of the GFP+ (green fluorescent protein) cells as described (Perrotti et al., (2002), Nat. Genet. 30:48-58). The following cells were kind gifts: 32D-p210^Y253H (B. Calabretta; TJU, Philadelphia, Pa.); BaF3-p210^T315I (B. Druker; OHSU, Portland, Oreg.); TonB210.1 (G. Daley; Harvard University, Cambridge, Mass.). Frozen samples of CD34+ bone marrow cells (NBM) from different healthy donors were from AllCells LLC (Berkeley, Calif.). […] Erythroid differentiation of K562 and derivative cell lines was assessed by o-Dianisidine (Fast Blue B; Sigma) staining of methylcellulose colonies. […]
Methylcellulose colony formation assays were carried out by plating 103 or 5×10^4 cells from BCR/ABL cell lines or primary human CML and mouse BMC, respectively, in 0.9% MethoCult H4230 (Stem Cell Technologies Inc.). […] Colonies (>125 μm) from cell lines and primary cells were scored 7 and 15 days later, respectively.

The test system of data set [4] is 32D-BCR/ABL (T315I) cells. Particulars: for treated mice BCR/ABL negative and alive 18 weeks after cell injection: after 4 weeks from restarting therapy.
For data set [5] the following is noted: i.p.; cited from earlier work.
Data set [6] relates to imatinib-sensitive and -resistant BCR/ABL+ cell lines. Put plainly: Methylcellulose colony formation of BCR/ABL cell lines. In kind it is cell-based. As to the method: Methylcellulose colony formation assays were carried out by plating 103 or 5×10^4 cells from BCR/ABL cell lines or primary human CML and mouse BMC, respectively, in 0.9% MethoCult H4230 (Stem Cell Technologies Inc.). Where indicated, cells were plated in the presence of rhIL-3 (100 ng/ml) or rhG-CSF (25 ng/ml). Colonies (>125 μm) from cell lines and primary cells were scored 7 and 15 days later, respectively.

Data set [7] relates to BCR/ABL-transduced wild-type and SHP-1-deficient CD34+ mouse marrow cells. Put plainly: Clonogenic assay of BCR/ABL-transduced mouse CD34+ marrow cells. It is filed as cell-based. As to conditions: forskolin 40 μM. As to the method: Normal murine hematopoietic marrow cells were obtained from the femurs of wild-type and SHP-1-deficient “viable moth eaten” mice (The Jackson Laboratory). After hypotonic lysis and Ficoll separation, cells were used for the isolation of the CD34+/lin− fraction (Miltenyi Biotech). […] Pear, University of Pennsylvania, Philadelphia, Pa.). GFP+ (Iervolino et al., 2002) wild-type and SHP-1−/− CD34+ cells (10^6) were treated or not with forskolin (40 μM; 48 hr) and used in clonogenic assay or processed for Western blot. Where indicated, cells were treated with the following: […] Methylcellulose colony formation assays were carried out by plating 103 or 5×10^4 cells from BCR/ABL cell lines or primary human CML and mouse BMC, respectively, in 0.9% MethoCult H4230 (Stem Cell Technologies Inc.). Where indicated, cells were plated in the presence of rhIL-3 (100 ng/ml) or rhG-CSF (25 ng/ml).

The test system of data set [8] is BCR/ABL+ cell lines and primary CML-BC CD34+ cells. As to the kind of experiment: Growth and apoptosis (annexin V) in liquid culture of BCR/ABL+ cells. It is filed as cell-based. Particulars: after 48 hr of forskolin treatment.
Data set [9] deals with 32D-BCR/ABL cells. Particulars: for mice still alive: 15 weeks postinjection.
Data set [10] relates to Akt. Put plainly: Western blot of phosphorylated and total Akt. In kind it is cell-based. As to conditions: okadaic acid (0.25 nM) added to FTY720.
The mark [11] stands for this setting: BCR/ABL+ cell lines and CML-BC CD34+ marrow blasts, exposure 18-24 hr, forskolin 40 μM.
Setting [12] is: PP2A-expressing 32D-BCR/ABL cells, 25 μM, 8 hr.

Structures can show the parent of a compound that is named as a salt. Where two headings read alike, the source gives them in different places. Square brackets hold non-standard residues; d marks the D form. Peptide text beside a SMILES is read from it. * marks the point of attachment. Myristoyl = CCCCCCCCCCCCCC(=O)*; Nle = CCCC[C@H](N)C(=O)O

A word on the LD50: it is the dose expected to kill half of the subjects tested. Turning to `C=C[C@@]1(C)CC(=O)[C@@H]2[C@@]3(C)CCCC(C)(C)[C@@H]3[C@H](O)[C@H](OC(C)=O)[C@@]2(C)O1` [1,9-dideoxy-forskolin], in data set [1] (setting [11]), the PP2A activity entry is “enhanced”. Moreover, the BCR/ABL phosphorylation result in [2] (setting [11]) was “abolished”. Further, the EC50 turned out to be 25 µM in [2] (imatinib-resistant cells) and 18 µM in data set [2] (imatinib-sensitive cells). The “decrease in IL-3-dependent clonogenicity / cytokine-driven colony formation” value in data set [3] was at most 15%. Moreover, the toxic side effects entry in data set [4] (8 mg/kg/week i.p., 18 weeks after cell injection) is reported as “no signs of toxic side effects”. Besides, in [4] (8 mg/kg/week i.p., after 4 weeks of treatment), the “survival and BCR/ABL status (nested RT-PCR, peripheral blood)” value is “all alive and BCR/ABL negative”. In addition, the “treated mice BCR/ABL negative and alive 18 weeks after cell injection” value was 50% in [4] (of cell-injected mice) and 100% in data set [4] (of treated mice). In [4] (after 7 weeks of treatment), this compound came in with a mice alive of 70%. Moreover, in [4] (after suspension of treatment), the “remaining mice tested BCR/ABL+” value was 50%. Also, in [4] (within 4 weeks from the end of treatment), the “mice relapsed and died of acute leukemia-like disease” value came to 20%. Also, in data set [5], the LD50 was 68 mg/kg.

As for `CCCC[C@@H](C=O)NC(=O)[C@H](CC(C)C)NC(=O)[C@H](CC(C)C)NC(C)=O` [ALLN] (Ac-Leu-Leu-[Nle]-aldehyde), in data set [2] (setting [12]), the BCR/ABL expression entry is reported as “restored” and the “PP2A-induced BCR/ABL tyrosine dephosphorylation” value is given as “did not prevent”.

In the case of `COC[C@@H]([C@H](O)[C@H](O)C(=O)NCC[C@H](C)c1nc(/C=C/C[C@@H]2O[C@]3(C[C@@H](O)[C@@H]2C)O[C@H]([C@H](C[C@H](O)[C@H](C)[C@H](O)[C@H](C)/C=C(C)/C(C)=C/C=C/C(C)=C\C#N)OC)[C@H](OP(=O)(O)O)C3(C)C)co1)N(C)C` [calyculin A], the “BCR/ABL activity and expression” value in [2] is “restored”.

`C=C[C@@]1(C)CC(=O)[C@]2(O)[C@@]3(C)[C@@H](O)CCC(C)(C)[C@@H]3[C@H](O)[C@H](OC(C)=O)[C@@]2(C)O1` [forskolin]: the EC50 in [2] (imatinib-resistant cells) came to 25 µM; in data set [2] (imatinib-sensitive cells) it was 18 µM. For the same compound, the “inhibition of clonogenic potential (average)” value in data set [6] is recorded as 75%. In addition, in [7], the “decrease of clonogenic potential” value is reported as around 70%. The “percentage of apoptosis (annexin V+ cells)” value in data set [8] (BCR/ABL+ cell lines) was 80%; in [8] (primary CML-BC cells) it was 95%. Further, the mice still alive in [9] (control mice that received only forskolin) is recorded as 100%; in [9] (forskolin-treated cell-injected mice), 40%. This compound also came in with a median survival in data set [9] (forskolin-treated mice injected with 32D-BCR/ABL cells) of 8 weeks. The LD50 in data set [5] is 67 mg/kg.

For `Cc1ccc(NC(=O)c2ccc(CN3CCN(C)CC3)cc2)cc1Nc1nccc(-c2cccnc2)n1` [imatinib, imatinib mesylate], the PP2A activity result in [1] (32D-BCR/ABL cells, 1 μM, 24 hr) is listed as “restored to normal levels”; in data set [1] (imatinib-resistant BaF3p210 T315I cells), “did not rescue”.

Turning to `C=C1[C@@H](O)[C@@H]2O[C@]3(CC[C@H](/C=C/[C@@H](C)[C@@H]4CC(C)=C[C@@]5(O[C@H](C[C@@](C)(O)C(=O)O)CC[C@H]5O)O4)O3)CC[C@H]2O[C@@H]1[C@@H](O)C[C@H](C)[C@H]1O[C@@]2(CCCCO2)CC[C@H]1C` [okadaic acid], the “BCR/ABL activity and expression” value in data set [2] is “restored”. Further, in data set [10], the “apoptosis and effect on PP2A targets (e.g. Akt dephosphorylation) observed with FTY720” value is listed as “abrogates in part”.

`O.O.O.O.O.O.O.O.O.O=C([O-])[C@@H]1[O][Sb]2([O-])([O][Sb]34([OH])[O][C@H]([C@H](O)CO)[C@H]([O]3)[C@H](C(=O)[O-])[O]4)[O][C@H]([C@H](O)CO)[C@@H]1[O]2.[Na+].[Na+].[Na+]` [sodium stibogluconate]: in data set [2] (SET shRNA- and HA-PP2A-expressing 32D-BCR/ABL cells), the BCR/ABL phosphorylation result is “restored”.

Turning to `Cn1c(=O)c2[nH]cnc2n(C)c1=O` [theophylline], the BCR/ABL expression/activity entry in data set [2] (100 μM, 24 hr) was “did not affect”.

On to butyryl-forskolin, for which the PP2A activity entry in data set [1] (setting [11]) is given as “enhanced”. Besides, the BCR/ABL phosphorylation entry in [2] (setting [11]) is given as “abolished”. For the same compound, the figures for the EC50 in [2] (imatinib-resistant cells) and in data set [2] (imatinib-sensitive cells) were 25 µM and 18 µM, respectively.

Regarding “myristoylated-PKI(14-22)-amide (Myristoyl-SGRTGRRNA-NH2; SMILES CCCCCCCCCCCCCC(=O)N[C@@H](CO)C(=O)NCC(=O)N[C@@H](CCCNC(=N)N)C(=O)N[C@H](C(=O)NCC(=O)N[C@@H](CCCNC(=N)N)C(=O)N[C@@H](CCCNC(=N)N)C(=O)N[C@@H](CC(N)=O)C(=O)N[C@@H](C)C(N)=O)[C@@H](C)O; UniProt P61925 14-22, looked up, fragment)”, the “forskolin-induced BCR/ABL downregulation” value in [2] (4 μM, 24 hr, with forskolin) is listed as “did not inhibit”.

These data come from US8633161B2, “Therapeutic agents for the treatment of leukemia” (The Ohio State University Research Foundation, priority 2005, dated 2014).
